The record followed here is patent publication US20110137633A1, “ANTI-VIRAL COMPOUNDS AND METHODS OF IDENTIFYING THE SAME” (ABBOTT LABORATORIES, priority 2009, published 2011).

The subject of one assay is HCV 1a replicon. In words: HCV 1a replicon assay (luciferase reporter). It counts as cell-based, Hepatitis C virus genotype 1a-H77. The conditions noted are these: in vitro, relative to compound of FIG. 2A.
For the next assay, the system named is HCV 1b replicon. In words: HCV 1b replicon assay (luciferase reporter). It counts as cell-based, Hepatitis C virus genotype 1b-Con1. The note with it: in vitro, relative to compound of FIG. 2A.

`CC(C)c1ccc2c(Nc3cc(C(=O)N[C@@H](C)c4ccccc4)ccc3Sc3ccc(N)cc3)ncnc2n1` [compound of FIG. 2B]: the “increase in HCV replication inhibitory activities compared to the compound of FIG. 2A” value with HCV 1a replicon is “over 1,000 fold”; in the assay on HCV 1b replicon, “over 600 fold”.
